In brackets after ≈: the same amount, converted by molar mass.

By IC50 is commonly meant the concentration that inhibits the measured activity by half. As usually defined, the solubility is how much of the substance goes into solution per volume. Lower therefore signals a poorly soluble substance.

Data set [1] concerns MCF-7. The data set can be described thus: MTT cytotoxicity assay, MCF-7 (1st panel). The data set is classed as cell-based, human. Conditions: for IC50: Homo sapiens, MCF7, 72 h, ± SD, MTT, 72 h; for selectivity index SI (MCF-7): IC50 normal cell line CCD39Lu/IC50 MCF-7. The procedure: (§1) Cell survival was measured as the percentage absorbance compared to the control (nontreated cells). […]
(§2) SI indexes were calculated from equation SI = IC50 normal cell line HDF/IC50 respective cancerous cell line (Table 2). A beneficial SI > 1.0 indicates a compound with efficacy against tumor cell greater than the toxicity against normal cells.
(§3) All experiments were carried out with human breast adenocarcinoma (MDA-MB-231 and MCF-7), hepatocellular carcinoma (HepG2), human cervical adenocarcinoma (HeLa) cancer cell lines, and human normal lung fibroblast (CCD39Lu) cell line. The cell line was purchased from the European Collection of Cells Cultures (ECACC, Salisbury, UK), and cultured in DMEM with phenol red supplemented with 10% (v/v) FBS, 1% (v/v) penicillin/streptomycin, and 1% (v/v) L-glutamine at 37 °C, in a humidified atmosphere containing 5% CO2.
(§4) The tested compounds were dissolved in DMSO to the final concentration 10 mM and stored […]
(§5) The cytotoxic effect of the tested compounds was determined by MTT assay. MDA-MB-231, MCF-7, HepG2, HeLa, and CCD39Lu cells were seeded in 96 wells plates at density 2x10^4 cells/well and incubated overnight under cell culture condition. Next, cells were treated with tested compounds at concentrations of 10 µM; 5 µM; 2.5 µM; 1.2 µM; 0.6 µM; 0.3 µM; 0.15 […]
(§6) µM. Moreover, GDM (for MCF-7) and 8 (for MCF-7 and MDA-MB-231) due to high cytotoxicity, were additionally tested at a lower concentration range of 2.5 µM; 1.2 µM; 0.6 µM; 0.3 µM; 0.15µM; 0.07 µM; 0.03 µM. DMSO was used as a control, and the concentration […]
(§7) Tested compounds were added to cells in the medium without phenol red. Cells were incubated 72 h at 37 °C in a humidified atmosphere containing 5% CO2.
(§8) Then, the medium was aspirated and MTT solution at a concentration of 0.59 mg/mL in cell culture medium was added to each well. Plates were incubated for 1.5 hours at 37 °C, and then plates were centrifuged for 3 minutes. The formazan crystals were dissolved in 200 µl DMSO and plates were agitated on a plate shaker at 300 –500 rpm for 10 minutes. Absorbance at 570 nm was measured using a plate reader (Biotek Instruments, Elx -800). Data were normalized to the mean absorption of control cells. All experiments were performed at least three times. […]
On the technique in general: Formazan colour is commonly taken as a measure of viable cells.

The subject of data set [2] is HeLa. The data set can be described thus: MTT cytotoxicity assay, HeLa (1st panel). The class given is cell-based, human. Conditions: for IC50: Homo sapiens, HeLa, ± SD, MTT, 72 h; for selectivity index SI (HeLa): IC50 normal cell line CCD39Lu/IC50 HeLa. The procedure: as §1, §2, §3, §4, §5, §6, §7, §8
In data set [3] the test system is MDA-MB-231. Nature of the data set: MTT cytotoxicity assay, MDA-MB-231 (1st panel). The data set is classed as cell-based, human. As to conditions: for IC50: Homo sapiens, MDA-MB-231, ± SD, MTT, 72 h; for selectivity index SI (MDA-MB-231): IC50 normal cell line CCD39Lu/IC50 MDA-MB-231. The protocol: as §1, §2, §3, §4, §5, §6, §7, §8
The test system of data set [4] is CCD39Lu. The data set can be described thus: MTT cytotoxicity assay, normal lung fibroblasts CCD39Lu. Conditions: Fibroblast, ± SD, healthy human lung fibroblasts, 72 h, read-out: IC50 CCD39Lu (toxicity in normal cells). The data set is classed as cell-based. The protocol: as §1, §2, §3, §4, §5, §6, §7, §8
Data set [5] is described as follows: Water solubility SH2O.
Data set [6] relates to HepG2. Nature of the data set: MTT cytotoxicity assay, HepG2 (1st panel). The data set is classed as cell-based, human. As to conditions: for IC50: Homo sapiens, HepG2, ± SD, MTT, 72 h; for selectivity index SI (HepG2): IC50 normal cell line CCD39Lu/IC50 HepG2. The procedure:
as §1, §2, §3, §4, §5, §6, §7, §8

In data set [7] the test system is HDF. The data set can be described thus: SRB cytotoxicity assay, human dermal fibroblasts HDF. The class given is cell-based. As to conditions: 72 h, ± SD, mixtures equimolar 1:1, read-out: IC50 HDF (toxicity in normal cells). The procedure: (§9) Medium. Human Dermal Fibroblasts cell line (HDF) was cultured in Fibroblast Basal Medium.
(§10) Each medium was supplemented with 10% fetal bovine serum, 1% L-glutamine, and 1% penicillin/streptomycin solution. The cell lines were kept in the incubator at 37◦C. The optimal plating density of cell lines was determined to be 5 × 104. All the cell lines and mediums were obtained from American Type Culture Collection (ATCC) supplied by LGC-Standards. The protein-staining SRB (Sigma-Aldrich) microculture colorimetric assay, developed by the National Cancer Institute (USA) for in vitro antitumor screening was used in this study, to estimate the cell number by providing a sensitive index of total cellular protein content, being linear to cell density. The monolayer cell culture was trypsinized and the cell count was adjusted to 5 × 10^4 cells. To each well of the 96 well microtiter plate, 0.1 mL of the diluted cell suspension (approximately […]) was added. After 24 hours, when a partial monolayer was formed, the supernatant was washed out and 100 μL of six different compound concentrations (0.1, 0.2, 1, 2, 10, and 20 μM) were added to the cells in microtitre plates. The tested compounds were dissolved in DMSO (containing 10 % of water) (100 μL) and the […]
(§11) lines. The cells were exposed to compounds for 72 hours at 37 °C in a humidified atmosphere (90% RH) containing 5% CO2. After that, 25 μL of 50 % trichloroacetic acid was added to the wells and the plates were incubated for 1 hour at 4◦C. The plates were then washed out with the distilled water to remove traces of medium and next dried by the air. The air-dried plates were stained with 100 μL of 0.4% sulforhodamine B (prepared in 1 % acetic acid) and kept for 30 minutes at room temperature. The unbound dye was removed by rapidly washing with 1% […]
(§12) acetic acid and then air dried overnight. The protein-bound dye was dissolved in 100 μL of 10 mM unbuffered Tris base (pH 10.5) for optical density determination at 490 nm. All cytotoxicity experiments were performed three times. Cell survival was measured as the percentage absorbance compared to the control (nontreated cells). Cytarabine (ara-C) and GDM were used as the internal standards. Additionally biological assays were performed in Human Dermal Fibroblasts cell line (HDF) in aim to evaluate cytotoxicity of GDM and its 1-13 analogs in healthy cells. SI indexes were calculated from equation SI = IC50 normal cell line HDF/IC50 respective cancerous cell line (Table 2). A beneficial SI > 1.0 indicates a compound with efficacy against tumor cell greater than the toxicity against normal cells. […]
On the technique in general: In SRB staining, fixed cells bind dye roughly in proportion to their protein.

For data set [8], the system named is SKOV-3. The data set can be described thus: SRB cytotoxicity assay, SKOV-3 (2nd panel). The class given is cell-based, human. Conditions: for IC50: Homo sapiens, SK-OV-3, ± SD, SRB, 72 h, mixtures equimolar 1:1; for selectivity index SIHDF (SKOV-3): IC50 normal cell line HDF/IC50 SKOV-3. The procedure:
(§13) Human cancer cells SKBR-3 (human breast cancer cell line) and SKOV-3 (ovarian cancer cell line) were cultured in McCoy’s Modified Medium. […]
as §9, §10, §11, §12

Data set [9] concerns SKBR-3. Nature of the data set: SRB cytotoxicity assay, SKBR-3 (2nd panel). Conditions: for IC50: Homo sapiens, SK-BR-3, ± SD, SRB, 72 h, mixtures equimolar 1:1; for selectivity index SIHDF (SKBR-3): IC50 normal cell line HDF/IC50 SKBR-3. The class given is cell-based, human. The protocol:
as §13, §9, §10, §11, §12

Data set [10] deals with A-549. Nature of the data set: SRB cytotoxicity assay, A-549 (2nd panel). The data set is classed as cell-based, human. Conditions: for IC50: Homo sapiens, A549, ± SD, SRB, 72 h; for selectivity index SIHDF (A-549): IC50 normal cell line HDF/IC50 A-549. The procedure: as §9, §10, §11, §12
The test system of data set [11] is PC-3. The data set can be described thus: SRB cytotoxicity assay, PC-3 (2nd panel). The data set is classed as cell-based, human. Conditions: for IC50: Homo sapiens, PC-3, ± SD, SRB, 72 h, mixtures equimolar 1:1; for selectivity index SIHDF (PC-3): IC50 normal cell line HDF/IC50 PC-3. The protocol: as §9, §10, §11, §12
In data set [12] the test system is U-87. Nature of the data set: SRB cytotoxicity assay, U-87 (2nd panel). The class given is cell-based, human. As to conditions: for IC50: Homo sapiens, U-87 MG, ± SD, SRB, 72 h; for selectivity index SIHDF (U-87): IC50 normal cell line HDF/IC50 U-87. The protocol: U-87MG cells (glioblastoma cell line) were cultured in Eagle’s Minimal Essential Medium. Human Dermal Fibroblasts cell line (HDF) was cultured in Fibroblast Basal Medium.
as §10, §11, §12

Data set [13] in a line: physchem. Conditions: water, Solubility SH2O.

Consider `CO[C@H]1/C=C\C=C(/C)C(=O)NC2=CC(=O)C(NC3CCC(O)CC3)=C(C[C@@H](C)C[C@H](OC)[C@H](O)[C@@H](C)/C=C(\C)[C@@H]1OC(N)=O)C2=O` (stereo partly shown) [Compound 4], for which the IC50 in data set [1], in data set [2], in [3], in [4] and in data set [6] was more than 10 µM throughout. Also, the “selectivity index SI (MCF-7)” value in data set [1] is more than 1. Further, the “selectivity index SI (HeLa)” value in data set [2] is more than 1. For the same compound, the “selectivity index SI (MDA-MB-231)” value in data set [3] is more than 1. This compound gave a solubility in [5] of 40 µg/mL (≈ 62.1 µM). Moreover, in data set [6], the “selectivity index SI (HepG2)” value is more than 1.
Turning to `CO[C@H]1/C=C\C=C(/C)C(=O)NC2=CC(=O)C(NC3C[N+]4(Cc5ccsc5Br)CCC3CC4)=C(C[C@@H](C)C[C@H](OC)[C@H](O)[C@@H](C)/C=C(\C)[C@@H]1OC(N)=O)C2=O` (stereo partly shown) [Compound 12], the CC50 in [7] turned out to be 13.9 ± 0.42 µM. Also, in [8], the IC50 was determined as 8.02 ± 0.17 µM and the “selectivity index SIHDF (SKOV-3)” value worked out at 1.73. For the same compound, in data set [9], the IC50 came to 8.49 ± 0.36 µM and the “selectivity index SIHDF (SKBR-3)” value amounted to 1.64. Also, in data set [10], the half-inhibitory concentration (IC50) came out at 8.94 ± 0.27 µM and the “selectivity index SIHDF (A-549)” value is listed as 1.56. In addition, in data set [1], the half-inhibitory concentration (IC50) was 2.65 ± 1.09 µM and the “selectivity index SI (MCF-7)” value is listed as more than 3.77. In data set [2], the IC50 came to 9.12 ± 1.81 µM and the “selectivity index SI (HeLa)” value is reported as more than 1.10. For the same compound, in [11], the IC50 came out at 7.94 ± 0.03 µM and the “selectivity index SIHDF (PC-3)” value turned out to be 1.75. In [12], the IC50 was 8.58 ± 0.19 µM and the “selectivity index SIHDF (U-87)” value was 1.62. Also, in data set [3], it took 5.01 ± 2.15 µM to reach half-maximal inhibition (IC50) and the “selectivity index SI (MDA-MB-231)” value is recorded as more than 2.00. In addition, the half-maximal inhibitory concentration (IC50) in [4] is more than 10 µM. The same compound had a solubility in data set [13] of 4500 µg/mL. In data set [6], the IC50 is more than 10 µM and the “selectivity index SI (HepG2)” value is listed as more than 1.
Consider `COC1=C2C[C@@H](C)C[C@H](OC)[C@H](O)[C@@H](C)/C=C(\C)[C@H](OC(N)=O)[C@@H](OC)/C=C\C=C(/C)C(=O)NC(=CC1=O)C2=O` [GDM, Geldanamycin], for which, in data set [7], the CC50 was found to be 2.13 ± 0.11 µM. Further, in data set [8], the IC50 stood at 0.94 ± 0.09 µM and the “selectivity index SIHDF (SKOV-3)” value turned out to be 2.27. Besides, in data set [9], the IC50 was determined as 0.87 ± 0.17 µM and the “selectivity index SIHDF (SKBR-3)” value was found to be 2.45. Moreover, in [10], it took 0.99 ± 0.01 µM to reach half-maximal inhibition (IC50) and the “selectivity index SIHDF (A-549)” value was determined as 2.15. Also, in data set [1], half-maximal inhibition (IC50) required 3.51 ± 0.21 µM and the “selectivity index SI (MCF-7)” value came to 2.42. For the same compound, in data set [2], the IC50 worked out at 1.42 ± 0.1 µM and the “selectivity index SI (HeLa)” value stood at 5.99. In addition, in data set [11], the IC50 stood at 0.73 ± 0.01 µM and the “selectivity index SIHDF (PC-3)” value stood at 2.92. In data set [12], the IC50 stood at 0.81 ± 0.12 µM and the “selectivity index SIHDF (U-87)” value is 2.62. In addition, in [3], the IC50 stood at 1.04 ± 0.63 µM and the “selectivity index SI (MDA-MB-231)” value was 8.17. Besides, in data set [4], the IC50 amounted to 8.5 ± 0.25 µM. In data set [5], the “Solubility SH2O” value is “almost water-insoluble”. In [6], the IC50 came to 0.74 ± 0.32 µM and the “selectivity index SI (HepG2)” value is 11.48.

The values are drawn from paper PMC8344233, “Anticancer activity and toxicity of new quaternary ammonium geldanamycin derivative salts and their mixtures with potentiators” (Journal of Enzyme Inhibition and Medicinal Chemistry, 2021).
